Assay results from patent publication US20240390434A1, “PROBIOTIC ENHANCERS AND USES THEREOF” (Blis Technologies Limited, priority 2021, published 2024).

Assays:
Format in all cases: cell-based
S. pyogenes M76 = assay: Dose response deferred antagonism assay, producer M18; conditions: 1.5% (w/v) galactose, largest
S. pyogenes M57 = assay: Dose response deferred antagonism assay, producer K12; conditions: 0.1%, 1.0%, and 1.5% (w/v) galactose
Experimental: (§1) 1-2 producer strain colonies were transferred from a stock plate into 900 μL of suspension solution using a fresh cotton swab. Following this, suspensions were vortexed, and a sample was inoculated onto solid culture media using a fresh cotton swab. The inoculation was a streak that runs diametrically across the agar plate in a 1.5 cm wide strip. The plate was then incubated. Following incubation all visible colonies were removed by swabbing them from the agar surface. The plates were then treated with chloroform by dispensing 2 ml of chloroform onto 4 cm×4 cm piece of cloth and sealing the inverted agar plate on top for 30 minutes. The plates were then air dried for 30 minutes following chloroforming. 1-2 indicator strain colonies were then transferred from a stock plate into complementary suspension solution. The suspensions were then vortexed, and a sample was inoculated onto the same agar surface. These samples were streaked in a perpendicular direction to the initial producer streak.
(§2) Each indicator streak was prepared with fresh a suspension containing cells from a corresponding stock plate containing the indicator strain of interest. Indicator strains suspension samples were transferred using a fresh cotton swab. Results were measured by qualitatively reviewing the subsequent (if any) sizes of the zones of inhibition (ZOI) of indicator strain colony growth. A positive result is when there is a distinctive reduction or complete inhibition of indicator colony growth on the culture medium.
(§3) CABCa agar plates containing various concentrations of saccharide were prepared according to the methods described in Method 1. Producer strains were transferred from stock agar plates into 900 μL THB using a fresh cotton swab. A plastic spread plater was cut to approximately 1.2 cm width and then dipped into ethanol and left to air dry to ensure sterility. A 100 μL sample of the producer strain suspension was then dispensed onto the agar surface in a straight line running diametrically across the agar surface in (approximately) 20 μL spots. The spots were spaced approximately 1.5 cm apart from each other. The plastic spreader was then used to evenly distribute the spots across the agar surface in a 1.5 cm wide strip. This step was taken to ensure an even producer streak was inoculated onto the agar surface and provided an approximate measure of the initial inoculum concentration. Separate plastic spreaders were used for samples containing different producer strains. The samples were left to soak into the agar surface until there was no visible liquid remaining on the agar surface (approximately 20 minutes). Following producer streak preparations, the deferred antagonism assay protocol was followed as per Method 2. Results were recorded by measuring the size of the zone of inhibition (ZOI) in mm.
(§4) The results presented in FIG. 1 and FIG. 2 illustrate the change in ear, nose, and throat (ENT) microorganism indicator strain zone of inhibition sizes. When K12 was cultured in the presence of various concentrations of galactose the ZOI sizes for several of the ENTR indicator strains increased markedly from the control condition (FIG. 1). M. catarrhalis TW1 and TW2 display similar changes in the ZOI sizes across the various concentrations of galactose. The change in TW1 ZOI size peaks at 1.5% galactose(w/v) (12 mm) then decreases at 2.0% galactose (w/v), whereas the change of TW2 ZOI size peaks at 2.0% galactose (w/v) (11 mm). The change in L. lactis T-21 ZOI sizes trend upwards relative to the concentration of galactose present in the culture medium.

S. sobrinus OMZ176 = assay: Deferred antagonism assay, producer S. salivarius K12; conditions: Streptococcus sobrinus, read-out: Size of zone inhibition normalised to control, S. sobrinus OMZ176
Experimental: as §1, §2
(§5) Method: CABCa agar plates were prepared with or without 0.5, 1.25, 1.7, 2.5, 3.3 and 5% galactose by the addition of 0.5% (w/v) calcium carbonate to solid CAB agar in bottles and then melted by autoclaving at 110° C. for 10 mins. Once cooled, filter sterilised solutions of the saccharides or distilled water were added and mixed and then 20 ml pipetted into petri dishes.
A deferred antagonism assay was conducted using K12 or M18 raw ingredient suspended in Todd Hewitt broth (THB). This was spread as a 1.2 cm streak containing approximately 1-2×10^6 cfu down the middle of a CABCa control or CABCa galactose supplemented test plate. After 18 hrs growth at 37° C. with 5% CO2, bacterial growth was removed, and the pH of the agar in the initial streak was measured and adjusted to a pH of 6.5-7.5 using 0.5M sodium carbonate pH11 before sterilizing the agar surface using chloroform vapor. Bacterial test strains were suspended in i-THB before being swabbed across the plates perpendicular to the initial streak. Plates were incubated for a further 18 hrs incubation at 37° C. with 5% CO2 before measuring (mm) any zones of inhibition for each test strain, […]

[1] = test system: microorganisms associated with skin, dental, ENTR; assay: Dose response assay, raffinose vs equimolar trimix and individual saccharides, K12; conditions: equimolar concentration
Experimental: as §3, with “mm. […]” for “mm.”

P. aeruginosa I2 = assay: Dose response deferred antagonism assay, producer M18; conditions: 1.5% (w/v) raffinose
[2] = test system: halitosis-causing gram-negative bacteria F. nucleatum, P. gingivalis and P. intermedia; assay: Deferred antagonism assay (anaerobic), producer M18; conditions: 2.5% w/w raffinose; or combination with 0.5% w/w galactose
Experimental: as §5, with “2.5% w/w raffinose, 0.5% w/w” for “0.5, 1.25, 1.7, 2.5, 3.3 and 5%”, “galactose or a combination of both saccharides” for “galactose”
A deferred antagonism assay was conducted using K12 or M18 raw ingredient suspended in THB. This was spread as a 1.2 cm streak containing approximately 1-2×10^6 cfu down the middle of a CABCa control or CABCa galactose supplemented test plate. After 18 hrs growth at 37° C., 5% CO2 in air, bacterial growth was removed, and the pH of the agar in the initial streak was measured and adjusted to a pH of 6.5-7.5 using 0.5M sodium carbonate pH11 before sterilizing the agar surface using chloroform vapor. Bacterial test strains were suspended in THB and swabbed across the plates perpendicular to the initial streak and then the plates were incubated at 37° C. in an anaerobic jar containing an anaeroGen sachet for 4 days. Zones of inhibition for each test strain were then measured (mm).

H. influenzae TW5 [3] = assay: Dose response deferred antagonism assay, producer M18; conditions: 1.5% (w/v) raffinose
H. influenzae TW5 [4] = assay: Dose response deferred antagonism assay, producer K12
Experimental: as §1, §2, §3, §4

| SMILES | S. pyogenes M76 zone of inhibition (S. pyogenes M76) [mm] | S. pyogenes M57 ZOI sizes vs control condition (S. pyogenes M57) | zone of inhibition at 1.25 % strength (S. sobrinus OMZ176; Galactose 1.25% w/w) [mm] | zone of inhibition at 1.7 % strength (S. sobrinus OMZ176; Galactose 1.7% w/w) [mm] | zone of inhibition at 2.5 % strength (S. sobrinus OMZ176; Galactose 2.5% w/w) [mm] | zone of inhibition at 3.3 % strength (S. sobrinus OMZ176; Galactose 3.3% w/w) [mm] | zone of inhibition at 5 % strength (S. sobrinus OMZ176; Galactose 5% w/w) [mm] | inhibitory activity of K12 compared to equivalent composition of the three monomeric saccharides [1] | P. aeruginosa I2 ZOI (P. aeruginosa I2) [mm] | antimicrobial activity of M18 against halitosis-causing bacteria [2] | H. influenzae TW5 ZOI size (H. influenzae TW5 [3]) [mm] | change in ZOI size for H. influenzae TW5 (H. influenzae TW5 [4]; 1.5% raffinose (w/v), peak) [mm] | TW5 ZOI size change (H. influenzae TW5 [4]; 2% raffinose (w/v)) [mm] |
| --- | --- | --- | --- | --- | --- | --- | --- | --- | --- | --- | --- | --- | --- |
| O=C[C@H](O)[C@@H](O)[C@@H](O)[C@H](O)CO [Galactose, D-galactose] | 14 | increase | 0 | 0 | 0 | 0 | 0 |  |  |  |  |  |  |
| OC[C@H]1O[C@H](OC[C@H]2O[C@H](O[C@]3(CO)O[C@H](CO)[C@@H](O)[C@@H]3O)[C@H](O)[C@@H](O)[C@@H]2O)[C@H](O)[C@@H](O)[C@H]1O [Raffinose, D-(+) Raffinose pentahydrate] |  |  |  |  |  |  |  | better inhibitory activity | 10 | inhibit some strains | 26 | 12 | 0 |
